Results from patent US4161542A, “Heart active compounds” (priority 1975, dated 1979).
Where two headings read alike, the source gives them in different places.

How the values were obtained:
β-receptors = assay: β-blocking activity in reserpinized anesthetized cat (block of isoprenaline effect on heart rate and peripheral resistance; intrinsic activity); format: in vivo; conditions: for Intrinsic activity (increase in heart rate relative to basal): after final dose giving 100% blockade of isoprenaline response; for Block of isopren. ED50 HR (heart rate blockade) / Block of isopren. ED50 PR (peripheral resistance blockade): cumulative doses, vs isoprenaline i.v.; for Block of isopren. ED50 PR (peripheral resistance blockade): peripheral vascular resistance
Protocol: Anesthetized cats (males and females weighing 2.5-3.5 kg) were pretreated with reserpine (5 mg/kg bodyweight administered intramuscularly) about 16 hours before the experiments. The animals were pretreated with reserpine in order to eliminate the endogenous sympathetic control of heart rate and vascular smooth muscle tone. The cats were anesthetized with pentobarbital (30 mg/kg bodyweight administered i.p.) and artificially ventilated with room air. A bilateral vagotomy was performed in the neck. Blood pressure was obtained from a cannulated carotid artery and heart rate was registered from a cardiotachometer, triggered by the electrocardiogram (ECG). One […] artery was cannulated and perfused with the cat's own blood, delivered at a constant flow rate with a Watson Marlow roller pump. The perfusion pressure was recorded with a Statham pressure transducer. The blood flow rate was so adjusted that the initially recorded perfusion pressure was slightly above the systemic arterial mean blood pressure. In the studied hind limb the paw was excluded from the circulation by a tight ligature. An isoprenaline dose administered intravenously was established giving a submaximal heart rate (HR) increase and a submaximal decrease of peripheral vascular resistance (PR). The latter is shown as a drop of perfusion pressure.
To start the test, an initial dose of the test compound is injected into the animal. Ten minutes afterward the predetermined dose of isoprenaline is injected and the effect of the isoprenaline on the heart rate and peripheral resistance is noted. By comparing these observations with the normal response of the test animal to the predetermined dose of isoprenaline, the percent blockade of the HR and PR caused by the initial dose of test compound is calculated. The experiment is repeated with logrithmically increasing doses of the test compound (on a cumulative basis), alternating with the predetermined dose of isoprenaline every 10 minutes.
After the final dose of the test compound is administered--which is sufficient to cause a 100% blockade of the isoprenaline response--the intrinsic activity of the test compound is noted as the increase in heart rate relative to the basal heart rate of the test animal before the experiment began.

α-receptor = biological target: T1, α-receptor (Rattus norvegicus, UniProt P43140); assay: α-blocking activity in isolated rat vas deferens (antagonism of noradrenaline contraction)
T1 construct: from tissue; host or cells: isolated rat vas deferens
T1 sequence (P43140 1-466): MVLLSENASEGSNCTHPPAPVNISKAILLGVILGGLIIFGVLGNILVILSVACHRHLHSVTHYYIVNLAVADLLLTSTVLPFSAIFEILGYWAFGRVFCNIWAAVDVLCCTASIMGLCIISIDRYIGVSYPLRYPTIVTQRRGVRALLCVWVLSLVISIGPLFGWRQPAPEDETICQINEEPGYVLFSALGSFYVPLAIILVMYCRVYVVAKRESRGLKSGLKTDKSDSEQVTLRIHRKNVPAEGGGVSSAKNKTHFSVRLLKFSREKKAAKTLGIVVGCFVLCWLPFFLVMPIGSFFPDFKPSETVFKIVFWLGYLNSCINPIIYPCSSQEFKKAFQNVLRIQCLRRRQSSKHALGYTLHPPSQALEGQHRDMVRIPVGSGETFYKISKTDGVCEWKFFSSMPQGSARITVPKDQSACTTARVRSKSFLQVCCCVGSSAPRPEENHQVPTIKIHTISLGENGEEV
Protocol: α-blocking activity was tested in isolated rat vas deferens. Rats were decapitated and the vas deferens was immediately dissected out and mounted in an oxygenated Krebs Ringer solution at 37° C. Noradrenaline administered to the bath caused α-receptor mediated contraction of vas deferens, which was recorded with an isometric tension transducer. Dose response curves to noradrenaline were constructed before and after three increasing doses of the test compound. By using Schildt plots pA2 values for α-receptor blockade were obtained. By definition pA2 =-log concentration of an antagonist (in this case, the test compound) which requires that the concentration of the related agonist (in this case noradrenaline) be doubled in the presence of the antagonist in order to produce the same effect as the agonist caused in the absence of the antagonist.

[1] = isolated rat vas deferens, Krebs Ringer, 37° C., noradrenaline agonist, Schildt plot, read-out: pA2 (α-receptor blockade) (converted)

Compound | Intrinsic activity (increase in heart rate relative to basal) (β-receptors) | Block of isopren. ED50 HR (heart rate blockade) (β-receptors) [mg/kg] | Block of isopren. ED50 PR (peripheral resistance blockade) (β-receptors) [mg/kg] | Kb (α-receptor; [1]) [nM] | Kb (α-receptor) [nM]
Cc1ccccc1OCC(O)CNC(C)Cc1ccc(O)cc1 (stereo not shown) [Ex. 1, 3-[2-(4-hydroxyphenyl)-1-methylethylamino]-1-o-methylphenoxy-propanol-2] | +16 beats/min. | 0.07 | 0.07 | 158 | –
CCc1ccccc1OCC(O)CNC(C)Cc1ccc(O)cc1 (stereo not shown) [Ex. 2, 3-[2-(4-hydroxyphenyl)-1-methylethylamino]-1-o-ethylphenoxy-propanol-2] | +32 beats/min. | 0.11 | 0.15 | – | 63.1
C=CCc1ccccc1OCC(O)CNC(C)Cc1ccc(O)cc1 (stereo not shown) [Ex. 3, 3-[2-(4-hydroxyphenyl)-1-methylethylamino]-1-o-allylphenoxy-propanol-2] | +33 beats/min. | 0.7 | 1.1 | – | 63.1
C#CCOc1ccccc1OCC(O)CNC(C)Cc1ccc(O)cc1 (stereo not shown) [Ex. 4, 3-[2-(4-hydroxyphenyl)-1-methylethylamino]-1-o-propargyloxyphenoxy-propanol-2] | +22 beats/min. | 0.12 | 0.35 | 251 | –
Cc1ccccc1OCC(O)CNC(C)(C)Cc1ccc(O)cc1 (stereo not shown) [Ex. 5, 3-[2-(4-hydroxyphenyl)-1,1-dimethylethylamino]-1-o-methylphenoxy-propanol-2] | +62 beats/min. | 0.06 | 0.3 | 1580 | –
CCc1ccccc1OCC(O)CNC(C)(C)Cc1ccc(O)cc1 (stereo not shown) [Ex. 6, 3-[2-(4-hydroxyphenyl)-1,1-dimethylethylamino]-1-o-ethylphenoxy-propanol-2] | +38 beats/min. | 0.04 | 0.04 | 158 | –
C=CCc1ccccc1OCC(O)CNC(C)(C)Cc1ccc(O)cc1 (stereo not shown) [Ex. 7, 3-[2-(4-hydroxyphenyl)-1,1-dimethylethylamino]-1-o-allylphenoxy-propanol-2] | +39 beats/min. | 0.09 | 0.06 | 398 | –
Cc1cccc(OCC(O)CNC(C)Cc2ccc(O)cc2)c1C (stereo not shown) [Ex. 9, 3-[2-(4-hydroxyphenyl)-1-methylethylamino]-1-[2,3-dimethylphenoxy]-propanol-2] | – | 0.26 | 0.59 | 794 | –
COc1ccccc1OCC(O)CNC(C)Cc1ccc(O)cc1 (stereo not shown) [Ex. 10, 3-[2-(4-hydroxyphenyl)-1-methylethylamino]-1-o-methoxyphenoxy-propanol-2] | +40 beats/min. | 0.04 | 0.5 | 398 | –
CCc1ccccc1OCC(O)C(C)NC(C)Cc1ccc(O)cc1 (stereo not shown) [Ex. 11, 3-methyl-3-[2-(4-hydroxyphenyl)-1-methylethylamino]-1-o-ethylphenoxy-propanol-2] | +18 beats/min. | 0.3 | 0.5 | 631 | –
C=CCc1ccccc1OCC(O)C(CC)NC(C)Cc1ccc(O)cc1 (stereo not shown) [Ex. 12, 3-ethyl-3-[2-(4-hydroxyphenyl)-1-methylethylamino]-1-o-allylphenoxy-propanol-2] | – | 5.1 | 3.3 | 251 | –
Cc1ccccc1OCC(O)C(C)NC(C)(C)Cc1ccc(O)cc1 (stereo not shown) [Ex. 13, 3-methyl-3-[2-(4-hydroxyphenyl)-1,1-dimethylethylamino]-1-o-methylphenoxy-propanol-2] | +9 beats/min. | 1.3 | 8.5 | 631 | –
C=CCc1ccccc1OCC(O)C(C)NC(C)(C)Cc1ccc(O)cc1 (stereo not shown) [Ex. 14, 3-methyl-3-[2-(4-hydroxyphenyl)-1,1-dimethylethylamino]-1-o-allylphenoxy-propanol-2] | +3 beats/min. | 2.5 | 0.6 | 39.8 | –
Cc1cccc(OCC(O)CNC(C)Cc2ccc(O)cc2)c1 (stereo not shown) [Ex. 15, 3-[2-(4-hydroxyphenyl)-1-methylethylamino]-1-m-methylphenoxy-propanol-2] | +16 beats/min. | 0.3 | 0.9 | 6310 | –
CCCc1ccccc1OCC(O)CNC(C)Cc1ccc(O)cc1 (stereo not shown) [Ex. 16, 3-[2-(4-hydroxyphenyl)-1-methylethylamino]-1-o-propylphenoxy-propanol-2] | +35 beats/min. | 1.3 | 0.8 | 158 | –
COCCc1ccc(OCC(O)CNC(C)C)cc1 (stereo not shown) [Metoprolol, metoprolol, reference compound] | 0 beats/min. | 0.2 | 4.7 | – | –
CC(C)NCC(O)COc1cccc2ccccc12 (stereo not shown) [Propranolol, propranolol, reference compound] | 0 beats/min. | 0.1 | 0.1 | – | –
